Legend:
[1] = xn = mol fraction of the nth substance listed; conditions: 101 kPa, Liquid
[2] = 101 kPa, Liquid
[3] = refractive index (Na D-line) (dimensionless); conditions: 298.15 K; 101.33 kPa; Liquid; Standard Abbe refractometry

CCC(=O)c1ccccc1 [ethyl phenyl ketone] + c1ccccc1
mass density [kg/m3], [1]
Conditions | 298.15 K | 328.15 K
x2 = 0 | 1005.24 | 979.46
x2 = 0.1079 | 995.49 | 969.44
x2 = 0.1982 | 986.83 | 960.49
x2 = 0.2725 | 979.24 | 952.7
x2 = 0.3691 | 968.74 | 941.82
x2 = 0.4557 | 958.59 | 931.35
x2 = 0.5205 | 950.57 | 922.98
x2 = 0.6278 | 936.19 | 907.95
x2 = 0.7441 | 919.01 | 889.82
x2 = 0.8198 | 906.77 | 876.8
x2 = 0.8966 | 893.38 | 862.6

CCCCc1ccccc1 [butylbenzene] + CCC(=O)c1ccccc1
[1], x1 = 1
Conditions | mass density [kg/m3]
298.15 K | 856.23
328.15 K | 832.29

c1ccccc1 [benzene]
[2]
Conditions | mass density [kg/m3]
298.15 K | 873.62
328.15 K | 841.52

Conditions | refractive index
[3] | 1.4979

Cc1ccccc1 [toluene]
[2]
Conditions | mass density [kg/m3]
298.15 K | 862.25
328.15 K | 834.25

Conditions | refractive index
[3] | 1.4941

c1ccccc1 [benzene] + CCC(=O)c1ccccc1
[1], x1 = 1
Conditions | mass density [kg/m3]
298.15 K | 873.62
328.15 K | 841.52

CCC(=O)c1ccccc1 [ethyl phenyl ketone] + CCCCc1ccccc1
mass density [kg/m3], [1]
Conditions | 298.15 K | 328.15 K
x2 = 0 | 1005.29 | 979.54
x2 = 0.0906 | 989.98 | 964.4
x2 = 0.1842 | 974.56 | 949.13
x2 = 0.2739 | 960.14 | 934.89
x2 = 0.3688 | 945.31 | 920.21
x2 = 0.4531 | 932.45 | 907.51
x2 = 0.5519 | 917.76 | 893
x2 = 0.6164 | 908.4 | 883.77
x2 = 0.711 | 894.97 | 870.51
x2 = 0.8053 | 881.97 | 857.68
x2 = 0.9044 | 868.69 | 844.57

CCCCc1ccccc1 [butylbenzene]
[2]
Conditions | mass density [kg/m3]
298.15 K | 856.23
328.15 K | 832.29

Conditions | refractive index
[3] | 1.4874

Source: the NIST ThermoML archive (doi:10.1016/j.jct.2005.01.007)
